Experimental data as given in EP1513525B1, “USE OF MGLUR5 ANTAGONISTS FOR THE TREATMENT OF GERD” (AstraZeneca AB, priority 2002, dated 2003).

What was measured:
TLESRs [1] = assay: Screening for compounds active against TLESR, standard model (nutrient meal followed by air insufflation at 40 ml/min); format: in vivo, Adult Labrador retrievers
Procedure: (§1) Adult Labrador retrievers of both genders, trained to stand in a Pavlov sling, are used. Mucosa-to-skin esophagostomies are formed and the dogs are allowed to recover completely before any experiments are done.
(§2) In brief, after fasting for approximately 17 h with free supply of water, a multilumen sleeve/sidehole assembly (Dentsleeve, Adelaide, South Australia) is introduced through the esophagostomy to measure gastric, lower esophageal sphincter (LES) and esophageal pressures. The assembly is perfused with water using a low-compliance manometric perfusion pump (Dentsleeve, Adelaide, South Australia). An air-perfused tube is passed in the oral direction to measure swallows, and an antimony electrode monitored pH, 3 cm above the LES. All signals are amplified and acquired on a personal computer at 10 Hz.
When a baseline measurement free from fasting gastric/LES phase III motor activity has been obtained, placebo (0.9% NaCl) or test compound is administered intravenously (i.v., 0.5 ml/kg) in a foreleg vein. Ten min after i.v. administration, a nutrient meal (10% peptone, 5% D-glucose, 5% Intralipid, pH 3.0) is infused into the stomach through the central lumen of the assembly at 100 ml/min to a final volume of 30 ml/kg. Immediately following the meal, air is insufflated at 40 ml/min. In an alternative model (Barostat model), the infusion of the nutrient meal is followed by air infusion at a rate of 500 ml/min until a intragastric pressure of 10±1 mmHg is obtained. The pressure is then maintained at this level throughout the experiment using the infusion pump for further air infusion or for venting air from the stomach. The experimental time from start of nutrient infusion to end of air insufflation is 45 min. The procedure has been validated as a reliable means of triggering TLESRs.
TLESRs is defined as a decrease in lower esophageal sphincter pressure (with reference to intragastric pressure) at a rate of >1 mmHg/s. The relaxation should not be preceded by a pharyngeal signal ≤2s before its onset in which case the relaxation is classified as swallow-induced. The pressure difference between the LES and the stomach should be less than 2 mmHg, and the duration of the complete relaxation longer than 1 s.
2-Methyl-6-(phenylethynyl)-pyridine (MPEP) was prepared according to the procedure described by K. Sonogashira et al. in Tetrahedron Lett. (1975), 50, 4467-4470. After purification by column chromatography (SiO2), the hydrochloride salt (the hydrochloride salt of 2-methyl-6-(phenylethynyl)-pyridine is also commercially available from e.g. Tocris) was prepared by introducing HCl(g) to an ice-cooled Et2O-solution of the product. The hydrochloride salt of MPEP was tested on adult Labrador retrievers of both genders in accordance with the test model described above.
Inhibition of the number of TLESRs was calculated with regard to the five preceding control experiments for each dog, and the results as set out in Tables 1.1 and 1.2 below were achieved. Table 1.1 - Standard model

TLESRs [2] = assay: Screening for compounds active against TLESR, Barostat model (nutrient meal followed by air infusion, intragastric pressure held at 10±1 mmHg); format: in vivo, Adult Labrador retrievers; conditions: inhibition of the number of TLESRs, infusion during 55 min
Procedure: as §1, §2
Ten min after i.v. administration, a nutrient meal (10% peptone, 5% D-glucose, 5% Intralipid, pH 3.0) is infused into the stomach through the central lumen of the assembly at 100 ml/min to a final volume of 30 ml/kg. Immediately following the meal, air is insufflated at 40 ml/min. In an alternative model (Barostat model), the infusion of the nutrient meal is followed by air infusion at a rate of 500 ml/min until a intragastric pressure of 10±1 mmHg is obtained. […]

Structure (SMILES)	% INHIBITION ± SEM (N) (TLESRs [1]; inhibition of the number of TLESRs vs five preceding control experiments per dog, dose 1.4 µmol/kg i.v., N=4 dogs)	% INHIBITION ± SEM (N) (TLESRs [1]; inhibition of the number of TLESRs vs five preceding control experiments per dog, dose 4.3 µmol/kg i.v., N=4 dogs)	% INHIBITION ± SEM (N) (TLESRs [1]; inhibition of the number of TLESRs vs five preceding control experiments per dog, dose 8.7 µmol/kg i.v., N=3 dogs)	% INHIBITION ± SEM (N) (TLESRs [1]; inhibition of the number of TLESRs, dose 4 µmol/kg/h, infusion during 60 min, N=4 dogs)	% INHIBITION ± SEM (N) (TLESRs [1]; inhibition of the number of TLESRs, dose 6 µmol/kg/h, infusion during 60 min, N=2 dogs)	% INHIBITION ± SEM (N) (TLESRs [2]; dose 1.1 µmol/kg/h, N=4 dogs)	% INHIBITION ± SEM (N) (TLESRs [2]; dose 2.2 µmol/kg/h, N=2 dogs)
Cc1cccc(C#Cc2ccccc2)n1 [MPEP, 2-Methyl-6-(phenylethynyl)-pyridine]	30 ± 5 (4) %	57 ± 8 (4) %	59 ± 11 (3) %	32 ± 13 (4) %	43 ± 3 (2) %	–	–
COCc1cc(C#N)cc(-c2nc(-c3ccc(F)cn3)no2)c1 [3-[3-(5-fluoropyridin-2-yl)-1,2,4-oxadiazol-5-yl]-5-(methoxymethyl)benzonitrile]	–	–	–	–	–	58 ± 11 (4) %	83 ± 17 (2) %
